Results: ChEMBL document CHEMBL4316625, “Double prodrugs of a fosmidomycin surrogate as antimalarial and antitubercular agents” (Bioorg Med Chem Lett, 2019)
Values after ≈ are worked out from the molar mass of the structure shown.

Columns and labels:
[1] = Cytotoxicity in human MRC5 cells assessed as reduction in cell viability incubated for 24 hrs by resazurin-based cytotoxicity assay
[2] = tested on: Mycobacterium tuberculosis; experiment: Antitubercular activity against Mycobacterium tuberculosis H37Rv reduction in bacterial multiplication incubated for 7 days by luminometric assay; assay type: functional; conditions: 168 h
Plasmodium falciparum = experiment: Antiplasmodial activity against Plasmodium falciparum K1 infected in human erythrocytes assessed as reduction in parasite multiplication incubated for 72 hrs by Malstat method; assay type: functional, organism-based; conditions: K1, 72 h
[3] = Oral bioavailability in healthy human at 500 mg; assay type: ADME, organism-based; conditions: in vivo

**Q.** Which CC50 at 24 h [1] does the source give for CN(O)C(=O)CCCP(=O)(OCOC(=O)C(C)(C)C)OCOC(=O)C(C)(C)C here?
**A.** Its CC50 at 24 h is greater than 64 µM.

**Q.** What about the MIC [2] of the same molecule?
**A.** The MIC was greater than 50 µM.

**Q.** What does the source list for CN(OC(=O)c1ccccc1)C(=O)CCCP(=O)(OCOC(=O)C(C)(C)C)OCOC(=O)C(C)(C)C?
**A.** CC50 at 24 h [1]: > 64 µM; IC50 (Plasmodium falciparum): 1.08 µM; MIC [2]: 50 µM (≈ 26.5 µg/mL)

**Q.** Which results are given for CN(OC(=O)Nc1ccccc1)C(=O)CCCP(=O)(OCOC(=O)C(C)(C)C)OCOC(=O)C(C)(C)C?
**A.** CC50 at 24 h [1]: 33.4 µM; IC50 (Plasmodium falciparum): 3.34 µM

**Q.** Which results are given for CN(OCc1ccc([N+](=O)[O-])o1)C(=O)CCCP(=O)(OCOC(=O)C(C)(C)C)OCOC(=O)C(C)(C)C?
**A.** CC50 at 24 h [1]: 26.3 µM; IC50 (Plasmodium falciparum): 4.42 µM; MIC [2]: 12.5 µM (≈ 6.88 µg/mL)

**Q.** Which CC50 at 24 h [1] does the source give for CN(OCc1ccc([N+](=O)[O-])cc1)C(=O)CCCP(=O)(OCOC(=O)C(C)(C)C)OCOC(=O)C(C)(C)C here?
**A.** Its CC50 at 24 h is 26.5 µM.

**Q.** What about the IC50 (Plasmodium falciparum) of the same molecule?
**A.** The IC50 was 8.79 µM.

**Q.** What about the MIC [2] of the same molecule?
**A.** Its MIC is greater than 50 µM.

**Q.** Which CC50 at 24 h [1] does the source give for CN(OC(=O)NCc1ccccc1)C(=O)CCCP(=O)(OCOC(=O)C(C)(C)C)OCOC(=O)C(C)(C)C here?
**A.** Its CC50 at 24 h is 27.9 µM.

**Q.** And the IC50 (Plasmodium falciparum)?
**A.** The IC50 was 0.64 µM.

**Q.** And the MIC [2]?
**A.** Its MIC is greater than 50 µM.

**Q.** Which results are given for CCNC(=O)ON(C)C(=O)CCCP(=O)(OCOC(=O)C(C)(C)C)OCOC(=O)C(C)(C)C?
**A.** CC50 at 24 h [1]: 25.9 µM; IC50 (Plasmodium falciparum): 2.52 µM; MIC [2]: > 50 µM

**Q.** Which CC50 at 24 h [1] does the source give for CC(=O)ON(C)C(=O)CCCP(=O)(OCOC(=O)C(C)(C)C)OCOC(=O)C(C)(C)C here?
**A.** The CC50 at 24 h was greater than 64 µM.

**Q.** And the IC50 (Plasmodium falciparum)?
**A.** Its IC50 is 1.34 µM.

**Q.** For CCCCCCCCC(=O)ON(C)C(=O)CCCP(=O)(OCOC(=O)C(C)(C)C)OCOC(=O)C(C)(C)C, which CC50 at 24 h [1] is on record?
**A.** Its CC50 at 24 h is greater than 64 µM.

**Q.** And the IC50 (Plasmodium falciparum)?
**A.** Its IC50 is 1.41 µM.

**Q.** What about the MIC [2] of the same molecule?
**A.** The MIC was 50 µM (≈ 28.3 µg/mL).

**Q.** Which results are given for CN(OC(=O)OCc1ccccc1)C(=O)CCCP(=O)(OCOC(=O)C(C)(C)C)OCOC(=O)C(C)(C)C?
**A.** CC50 at 24 h [1]: > 42 µM; IC50 (Plasmodium falciparum): > 36 µM; MIC [2]: > 50 µM

**Q.** For CN(OCc1ccc([N+](=O)[O-])s1)C(=O)CCCP(=O)(OCOC(=O)C(C)(C)C)OCOC(=O)C(C)(C)C, which CC50 at 24 h [1] is on record?
**A.** Its CC50 at 24 h is 20.5 µM.

**Q.** And the IC50 (Plasmodium falciparum)?
**A.** Its IC50 is 4.69 µM.

**Q.** And the MIC [2]?
**A.** Its MIC is 12.5 µM (≈ 7.08 µg/mL).

**Q.** For CCCCCCCCC(=O)Oc1ccc(CON(C)C(=O)CCCP(=O)(OCOC(=O)C(C)(C)C)OCOC(=O)C(C)(C)C)cc1, which CC50 at 24 h [1] is on record?
**A.** The CC50 at 24 h was greater than 64 µM.

**Q.** And the IC50 (Plasmodium falciparum)?
**A.** Its IC50 is 19 µM.

**Q.** What about the MIC [2] of the same molecule?
**A.** The MIC was 50 µM (≈ 33.6 µg/mL).

**Q.** Which bioavailability [3] does the source give for O=CN(O)CCCP(=O)([O-])O.[Na+] [FOSMIDOMYCIN SODIUM] here?
**A.** The bioavailability was 20 to 40%.

**Q.** What about the CC50 at 24 h [1] of the same molecule?
**A.** The CC50 at 24 h was greater than 64 µM.

**Q.** And the MIC [2]?
**A.** The MIC was greater than 64 µM.
